In patent US11459586B2, “Methods for increasing efficiency of nuclease-mediated gene editing in stem cells” (President and Fellows of Harvard College, priority 2016, dated 2022):

System: human iPSC
Test: mThy1 gene targeting in hiPSC lentivirally overexpressing anti-apoptotic genes (EGFP+ vs EGFP- subsets)
Type: cell-based
Settings: lentiviral overexpression
Excerpt: FIGS. 3A-D. Overexpression of anti-apoptotic factors increases gene targeting rates in human iPSC, both for HR-mediated gene replacement and NHEJ-mediated gene excision. FIG. 3A. Mouse Thy1 gene targeting scheme. Two Crispr sgRNAs target human THY1 either within intron 1 (Left) or after the polyadenylation site (Right). The mouse Thy1 targeting vector plasmid contains mThy1 coding exons 2 and 3, flanked by hThy1 homology arms outside the sgRNA sites—coding exon 1 (which encodes the signal peptide) is retained but the sgRNA sites are disrupted. FIG. 3B. Plain human iPSC were infected with lentivirus that constitutively expresses EGFP together with an anti-apoptotic gene separated by an IRES. Three days after infection, each culture was nucleofected with plasmids encoding the mThy1 targeting vector, Cas9 nuclease, and Thy1 Left, Right, both, or no sgRNAs (pUC19). Five days later, cells were analyzed by flow cytometry. FIG. 3C. Representative FACS plots gated on live single cells: iPSC from each transfected culture were gated based on EGFP expression and the percentage of cells within those subsets that have gained mThy1 expression and/or lost hThy1 expression are indicated. […]
Subsequently, we determined whether rescue by these anti-apoptotic genes would result in higher gene editing frequencies in hiPSC. […]

Substance: Bcl-2: B cell lymphoma 2 protein, anti-apoptotic, overexpressed from lentivirus or Cas9 plasmid
- frequency of NHEJ-mediated hThy1 homozygous gene deletions (both Thy1 sgRNAs): increased
- frequency of HR-mediated mThy1 homozygous gene replacements (one sgRNA): dramatic increase
